Measured values: patent publication US7625891B2, “Heterocylic antiviral compounds” (Roche Palo Alto LLC, priority 2007, dated 2009)

How the values were obtained:
L1.2hCCR5 cells = assay: Chemotaxis assay; type: cell-based; details: Homo sapiens; Inhibition of RANTES stimulated chemotaxis
Source text: The chemotaxis assay is a functional assay which measures the ability of a non-adherent cell line expressing human CCR5 receptor to migrate across a membrane in response to either test compounds or natural attractant ligand(s) (i.e., RANTES, MIP-1β). Generally, chemotaxis assays monitor the directional movement or migration of a suitable cell (such as a leukocyte (e.g., lymphocyte, eosinophil, basophil)) into or through a barrier (e.g., endothelium, a permeable filter membrane), toward, from a first surface of the barrier toward an opposite second surface containing attractant ligands. Membranes or filters provide convenient barriers to monitor the directional movement or migration of a suitable cell into or through a filter, toward increased levels of an attractant. In some assays, the membrane is coated with a substance to facilitate adhesion, such as ICAM-1, fibronectin or collagen. Such assays provide an in vitro approximation of leukocyte “homing”. […] The filter is then removed and the density of the cells that have migrated to the bottom wells is detected using CyQUANT^R cell proliferation assay kit (Invitrogen) and the Spectra MAX GeminiXS plate reader (Molecular Devices) according to the manufacturers' instructions. Using the fluorescence measurements the percent migration is determined by % migration=[1−(max−obs)/(max−min)]×100. […] This is calculated with Excel Fit.

CCR5 = CCR5 (Homo sapiens, UniProt P51681); assay: Human CCR5 receptor-ligand binding assay (125I RANTES, CHO-Gα16-hCCR5 cells); set-up: expressed in transfected cells; details: specific 125I RANTES binding, CHO-Gα16-hCCR5 cells; read-out: IC50
Chain of CCR5 (P51681 whole entry): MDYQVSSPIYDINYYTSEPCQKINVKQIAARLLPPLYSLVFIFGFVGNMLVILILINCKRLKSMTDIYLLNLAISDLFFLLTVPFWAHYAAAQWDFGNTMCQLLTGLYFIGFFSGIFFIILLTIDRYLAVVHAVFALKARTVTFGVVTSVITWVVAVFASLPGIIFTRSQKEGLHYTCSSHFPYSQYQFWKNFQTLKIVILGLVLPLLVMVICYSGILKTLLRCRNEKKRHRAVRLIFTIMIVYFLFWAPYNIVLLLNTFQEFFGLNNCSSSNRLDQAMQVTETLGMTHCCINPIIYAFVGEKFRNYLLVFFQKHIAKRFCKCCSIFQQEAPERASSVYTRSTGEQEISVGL
Description: The construct was transfected into CHO-Gα16 cells by using Fugene Reagent (Roche).
Adherent cells in […] tissue culture flask (ca. 90% confluent) were harvested using 1 mM EDTA in PBS (phosphate-buffered saline) without Ca^2+ and Mg^2+. Cells were washed twice with PBS containing no Ca^2+ and Mg^2+.
Eighty μl CHO-Gα16-hCCR5 (1×10^6/mL) cells were added to 96 well plates.
The compound dilutions were made in PBS, 1% BSA. Total reaction volume was 100 μl per well. The test compounds were added to the cells prior to the addition of radioligand.
After incubation, the cells were harvested onto GF/C filter plates using Packard cell harvester. Filters were pretreated with 0.3% PEI/0.2% BSA for 30 min. The filter plate was washed rapidly 5 times with 25 mM HEPES, 500 mM NaCl, 1 mM CaCl2 and 5 mM MgCl2 adjusted to pH 7.1. Plates were dried in oven (70° C.) for 20 min, added with 40 μl scintillation fluid and sealed with Packard TopSeal-A. Packard Top Count was used to measure of the radioactivity for 1 min per well.
Total binding was determined with control wells added with radioisotope and buffer and the non-specific binding was determined using an excess cold RANTES to some of the control wells. Specific binding was determined by subtracting the non-specific form total binding. […] IC50 values were determined using varying concentrations of the test ligand in triplicates and the data was analyzed using GraphPad Prism (GraphPad, San Diego, Calif.).

IC50 (L1.2hCCR5 cells): 237 nM | IC50 (CCR5): 16.2 nM
Structure (SMILES): CCCCC1CN(C[C@H]2CC[C@@H](OC)CC2)C(=O)OC12CCN(C1(C)CCN(C(=O)c3c(C)ncnc3C)CC1)CC2 (relative stereo) [Compound I-2, 5-Butyl-9-[1-(4,6-dimethyl-pyrimidine-5-carbonyl)-4-methyl-piperidin-4-yl]-3-(cis-4-methoxy-cyclohexylmethyl)-1-oxa-3,9-diaza-spiro[5.5]undecan-2-one]
